The structures appear in SMILES notation.

As usually defined, the melting point is the temperature, or range, at which the solid turns liquid. In turn, `C=CCOc1ccccc1OCC(O)CN1CCC(N2CCCNC2=O)CC1` (stereo not drawn) had a melting point of 122 to 125 °C.
As for `CCOC(=O)CNc1ncccc1NC(=O)c1cccc(F)c1`, the figure is 134 to 135 °C; as for `O=Cc1c[nH]c(=O)c2ccccc12`, 222 to 223 °C.
With `N#Cc1[nH]c2ccc(C(=O)O)cc2c1-c1ccccc1` the figure was 302 to 304 °C; with `CCCc1c(OCC(O)CSc2ccc(CC(=O)OC)c(Cl)c2Cl)ccc(C(C)=O)c1O` (stereo not drawn), 85 to 88 °C.
Consider `COCc1ncnc(N2CCCCC2)c1C`, for which the melting point was in the range of 45 to 47 °C.
The compound `Cc1noc(-c2c(C)nc(Br)n2C)n1` came in with a melting point of 89 °C.
Regarding `COc1ccc(Cn2c(=O)cc(-c3nccn3C)c3cnc(SC)nc32)cc1Cl`, the melting point was in the range of 218 to 220 °C.
The compound `Nc1cc(Cl)ccc1-n1cccc1` gave a melting point of 89 to 90 °C.
With `Oc1ccc(-c2nnc(CSCCCCOc3ccccc3)o2)cc1` the figure was 129 to 130 °C.
`O=C(Nc1cnc2c(c1)CCCC2)C(Cl)(Cl)Cl` displayed a melting point of 157 to 159 °C.
`CC(C)(C)OC(=O)C=Cc1cncc2ccccc12` registered a melting point of 81 to 83 °C.
As for `O=C(CCl)Nc1cc(Oc2ncccc2C(F)(F)F)c(Cl)cc1F`, the figure is 146 to 149 °C.
As for `Cn1c(COc2ccc(CC3SC(=O)NC3=O)cc2)nc2ccc(Sc3ccccc3)nc21` (stereo not drawn), the figure is 166 to 168 °C; as for `O=C(Nc1ccc2[nH]c(=O)sc2c1)C(=O)N1CCC(Cc2ccccc2)CC1`, 201 to 203 °C; as for `CC(=O)Oc1ccc(CN2C(=O)C(=O)c3ccccc32)cc1`, 159 to 161 °C.
With `O=c1cc(CO)oc(-c2ccccc2)c1O` the figure was 151 to 154 °C.
As to `Cc1cccc2ncn(-c3nnn[nH]3)c(=O)c12`, the melting point is 280 to 281 °C.
In the case of `COc1ccc(C2C(C(=O)c3ccc(N4CCOCC4)cc3)=C(O)C(=O)N2c2ccc(C)nn2)cc1` (stereo not drawn), the melting point was found to be 232 °C.
With `COc1cc2c(cc1OC)CN(CCCOc1ccc(NC(=O)c3nccc4ccccc34)cc1)CC2` the figure was 160 °C; with `Cc1cc(NCCO)c2[nH]ncc2n1`, 213 to 216 °C.
As for `C=CCc1c(C(=O)OC)[nH]c2c(C)ccc(C)c12`, the figure is 135 to 136 °C; as for `C#CCOc1cc(-n2nc(C)c(Cl)c2C)c(Cl)cc1Cl`, 156 to 158 °C.
With `C=CCNc1nnc(-c2ccc(F)c(F)c2Nc2ccc(CC)cc2F)o1` the figure was 120 to 123 °C; with `COc1ccccc1Cc1ccc(-c2cnn3c(O)ncnc23)cc1`, 246 to 256 °C.
In turn, `CC(C)(C)OC(=O)N1CCC(CCCCN2C(=O)c3ccccc3C2=O)CC1` came in with a melting point of 100 to 102 °C.
As for `CCOC(=O)c1cnn2c1nc(N1CCCCC1)c1cnc3c(cnn3CC)c12`, the melting point lay in the range of 183 to 184 °C.
As for `CN1CCC(=C2c3cc(Cl)ccc3CCn3ncnc32)CC1`, the figure is 176 °C; as for `CS(=O)(=O)c1ccc(-c2cnn(-c3ccc(C#N)cc3)c(=O)c2-c2ccc(F)cc2)cc1`, 273 to 278 °C; as for `C=CCNC(=O)C=Cc1cn(C)nc1[N+](=O)[O-]`, 143 to 146 °C.
As for `COC(=O)c1ccc(OCCNC(=O)C2Cc3ccccc3N2S(=O)(=O)c2ccc(-c3ccc(F)cc3C)cc2)cc1F` (stereo not drawn), the figure is 66 to 75 °C.
As for `COc1cc2ccc(-c3ccc(C(=O)O)cc3)cc2cc1C12CC3CC(CC(C3)C1)C2`, the figure is 360 °C; as for `CCCCCCCCCCCCCCCc1ccc(CO)c(O)c1`, 94 to 95 °C.
For the compound `C[C@H]1C(=O)Nc2ccc(Cl)cc2N1C(=O)Cl`, the melting point was in the range of 194 to 195 °C.
As for `O=C1c2ccccc2C(=O)N1CC(=O)N1c2ccccc2N(Cc2cccnc2)C(=O)[C@H]2CCC[C@H]21` (relative stereo), the figure is 220 to 223 °C; as for `Nc1cc(C(F)(F)F)cc2c(Cl)ccnc12`, 57 to 58 °C.
As for `Cc1cc(C#N)sc1-c1ccc2c(c1)C(C)(C)OC(C(F)(F)F)N2` (stereo not drawn), the figure is 97 to 98 °C; as for `C[C@@H](O)c1nccc(N2CCn3c(nnc3-c3nc4ccccc4s3)C2)n1`, 216 to 218 °C; as for `CCCc1c(OCCCOc2ccc3ccc(OCC(=O)OC)cc3c2C(C)=O)ccc(C(C)=O)c1O`, 104 to 107 °C.
With `OC1(c2cccc(Cl)c2)CCN(CCCc2nnc3n2CCCCC3)CC1` the figure was 146 to 148 °C; with `N#Cc1ccc(C(F)(F)C(F)(F)C(F)(F)c2ccc(C#N)c(C#N)c2)cc1C#N`, 133 to 135 °C.
Regarding `COC(=O)c1ccc(Cc2cn(CC(=O)N(C)C)c3ccc(NC(=O)CC4CCCC4)cc23)c(OC)c1`, the melting point fell in the range of 129 to 132 °C.
`CCCCN(CCCC)CCCOc1ccc(S(=O)(=O)c2ccccc2CC)cc1`: the melting point came to 80 °C.
With `CCNCC1CCN(c2c(F)cc3c(=O)c(C(=O)O)cn4c3c2OCC4CC)C1` (stereo not drawn) the figure was 221 to 224 °C; with `COc1ccc2c(c1)c(OC(C)C)c(C(N)=O)n2C`, 147 to 149 °C; with `CCN(CC)CCC(=O)Nc1ccc2c(c1)C(=O)c1cc(NC(=O)CCN(CC)CC)ccc1C2=O`, 193 °C.
`CCOC(=O)Cc1ccc(NC(=O)C(CCc2ccccc2)NS(=O)(=O)c2ccc(Cl)cc2)cc1` (racemic) showed a melting point of 114 to 115 °C.
As for `COC1C(O)C(CO)OC1n1cnc2c(=O)[nH]c(N)nc21` (stereo not drawn), the figure is 236 to 238 °C; as for `COc1ccc(CCNS(=O)(=O)Cc2ccc3[nH]cc(CC#N)c3c2)cc1`, 134 to 135 °C; as for `Cc1cccc2c(C#N)cn(C)c12`, 116 °C.
As to `NNC(=S)Cc1ccc(F)cc1`, the melting point was 150 to 152 °C.
As for `O=C(O)C1Cc2c([nH]c3ccccc23)C(CO)N1` (stereo not drawn), the figure is 231 to 233 °C.
As for `CCc1nc2c(cnn2CC)c(NC2CCOCC2)c1CNC(=O)c1cc(C)cc(C(=O)OC)c1`, the figure is 89 to 93 °C; as for `COc1cc(C(=O)N2CCN(C(=O)CNC3CCN(Cc4ccccc4)CC3)C(c3ccc(Cl)c(Cl)c3)C2)cc(OC)c1OC` (racemic), 67 to 70 °C; as for `CCOC(=O)C1NCCN(C(=O)OC(C)(C)C)C1=O` (stereo not drawn), 86 to 87 °C.
As for `BrCCCCCOc1ccc2c(c1)OCO2`, the melting point is 54 to 57 °C.
`Cc1oc(-c2ccccc2)nc1CCOc1ccc(CCC2OC(=O)NC2=O)cc1` (stereo not drawn) displayed a melting point of 193 to 194 °C.
As for `Cn1c2c(c3ccccc3c1=O)C(=O)c1cc3c(cc1-2)OCO3`, the figure is 310 to 312 °C; as for `Cc1c(C)c2c(c(C)c1O)C(O)CC(C)(COc1ccc(CC3SC(=O)NC3=O)cc1)O2` (stereo not drawn), 102 to 118 °C; as for `O=C(O)C1CC(=O)N(c2ccccc2)C1c1cccnc1` (stereo not drawn), 229 to 232 °C.
Consider `Cc1cc(Oc2c(Cl)cc(C(F)(F)F)cc2Cl)nn1C(=O)NCC=O`, for which the melting point fell in the range of 111 to 113 °C.
On to `CCCCc1nn2c(C)c(-c3ccccc3)nc2n1Cc1ccc(-c2ccccc2-c2nnn[nH]2)cc1`, for which the melting point is 207 to 208 °C.
As for `Cn1c(/C=C/C(=O)Cl)c(-c2ccccc2)c2ccccc2c1=O`, the figure is 213 to 215 °C.

(Values after a melting point compilation (Tetko et al.; mined from patent text by program, amines drawn as free bases though some values may be those of a salt).)
